Measurements taken from patent US20050164182A1, “Nucleotide analogues” (priority 2001, published 2005).
Entries after “also recorded” stand apart in the source; their conditions may differ.

What was measured:
[1] = biological target: T1, subtilisin (Subtilopeptidase A, type VIII) (Bacillus licheniformis, UniProt P00780); test: Protease mediated cleavage of FamHex-GGL-β-A-2′dU, HPLC and MALDI-TOF analysis; assay type: biochemical; settings: 2 hours at 37° C., pH 7.5
T1 construct: purchased Sigma Chemical Co. UK
T1 sequence (P00780 106-379): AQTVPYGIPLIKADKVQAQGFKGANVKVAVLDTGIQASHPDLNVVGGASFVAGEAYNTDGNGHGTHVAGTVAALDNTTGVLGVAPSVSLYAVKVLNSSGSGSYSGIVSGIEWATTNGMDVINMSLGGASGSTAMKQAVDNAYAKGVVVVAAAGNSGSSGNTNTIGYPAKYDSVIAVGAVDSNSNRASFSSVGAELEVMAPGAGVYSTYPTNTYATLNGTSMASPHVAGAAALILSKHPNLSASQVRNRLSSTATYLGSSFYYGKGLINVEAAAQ
Experimental: A 10 μg aliquot of the substrate FAMHEX-GGL-β-A 2′dU (compound 6 above) was dissolved in 0.1M sodium acetate buffer pH 7.5 containing 5 mM calcium acetate. The substrate solution was digested at 37° C. for 2 hours in 200 μl in the presence of 0.5 units of subtilisin (Subtilopeptidase A, type VIII, Sigma Chemical Co. UK).
The resulting digest was ultrafiltered using a Microcon YM10 Concentrator (Milipore Ltd., UK) and the filtrate analysed by HPLC (Gilson 170, Gilson, UK) on a Sephasil™ peptide C-18 column (Amersham Biosicences, UK). […] These eluted at 29.8 (I), 32.6 (II), 26.7 (III) and 37.1 (IV) minutes on an acetonitrile gradient of 50% to 70%. The peaks were collected and analysed by MALDI-TOF mass spectrometry (Bruker Biflex II, Brucker, Germany). A matrix of 10 mg/ml 3-hydroxycinnamic acid in acetonitrile and 1% TFA was used for the analysis. The mass spectrometer was calibrated with 100 mM Bradykinin 1-7 (Sigma Chemical Co., UK).

[2] = test system: Thermosequenase; test: Primer extension reactions: incorporation of fluorescently labelled deoxynucleotide triphosphates by DNA polymerase; assay type: biochemical; settings: number of consecutive fluor-labelled nucleotides added; templates with 2, 3 or 8 consecutive A residues; 48° C. for 45 minutes

Substance | cleavage of the linker by subtilisin [1] | site of hydrolysis by subtilisin ([1]; molecular ion of 717 in peak II) | predominant product with templates 3, 4 and 5 [2]
5-N-[N-(6-Fluorescein-5(and 6)carboxamidohexanoyl)-Gly-Gly-Leu-β-alanyl]-propargylamino-2′-deoxyuridine [Compound 6] | consistent with the cleavage of the linker by the subtilisin enzyme; also recorded: readily digested by subtilisin | at the peptide bond on the carboxyl side of the leucine residue; also recorded: cleaves at the leucine residue | 
Alexa Fluor 568-5-dUTP [Alexa 568-5-dUTP] |  |  | One addition
Cy3 dUTP |  |  | One addition, with minor two additions
Lissamine-5-dUTP |  |  | One addition, with very slight two additions
Texas Red-5-dUTP |  |  | One addition, with very slight two additions
Cy5 dUTP |  |  | One addition, with minor two additions
Alexa Fluor 594-5-dUTP [Alexa 594-5-dUTP] |  |  | One addition
